Laboratory results as given in patent publication US11298338B2, “Compositions and methods for cancer therapy” (UNIVERSITY OF IOWA RESEARCH FOUNDATION, priority 2016, dated 2022).
Entries after “also recorded” stand apart in the source; their conditions may differ.

Assays:
OCI-MY5 cells = experiment: OCI-MY5 cell viability after 1 hr PAA treatment; assay type: cell-based, human; conditions: for effect of pre-treatment on PAA-induced cell death: OCI-MY5, catalase 100 U/ml, NAC 15 mM, DFO 200 μM or BCS 10 μM for 3 hrs before PAA, viability 24 hrs later
Method: FIGS. 2A-2D. […] OCI-MY5 EV (FIG. 2C) and OCI-MY5 OE-Fpn1 (FIG. 2D) were incubated with or without iron (Fe-NTA (FE), 100 μM).
(§1) FIGS. 4A-4E. […] (FIG. 4A) Top bar graph represents OCI-MY5 shRNA-Scramble and shRNA-AIF1 cells incubated with doxycycline to knockdown AIF1 for 2 days. Bottom bar graph represents OCI-MY5 EV and OCI-MY5 OE-AIF1 cells. […] Knockdown and overexpression of AIF1 was confirmed by western blots. […] AIF1, β-actin and γ-H2AX levels were analyzed by western blots. […] AIF1 and β-actin levels were analyzed by western blots. […] N, M, C respectively represent nucleus, mitochondria and cytoplasm. Blue arrows indicate the nuclear membrane and red arrowheads indicate AIF1 gold beads in cytoplasm or mitochondria. Black arrowheads indicate AIF1 gold beads in nuclei.
FIGS. 9A-9B. […] (FIG. 9B) Total RNA was extracted from OCI-MY5 EV and OE cells and Fpn1 mRNA was analyzed by Real time RT-PCR.
Human myeloma cell lines (ARP1, OCI-MY5 and their derivative cell lines) were cultured in RPMI 1640 (Invitrogen, Carlsbad, Calif.), supplemented with 10% heat-inactivated FBS (Invitrogen), penicillin (100 IU/mL), and streptomycin (100 μg/mL) in a humidified incubator at 37° C. and 5% CO2/95% air. To increase cellular iron concentration, ferric nitrilotriacatate (Fe-NTA) was used.

AIF1 [1] = experiment: Western blot of nuclear AIF1 in ARP1 MM cell line; assay type: cell-based, human; conditions: TRIP13N and TRIP13OE MM cells (FIG. 38D)
[2] = tested on: ARP1 MM cells with TRIP13 overexpression; experiment: Cell viability of ARP1 cells with TRIP13-OE or EV under drug treatment; assay type: cell-based, human; conditions: for response of TRIP13-OE ARP1 cells to drug: ARP1-OE vs ARP1-EV, different doses (FIGS. 37A, 37B)
ARP1 MM cells = experiment: Human myeloma xenograft mice, tumor burden by IVIS and survival; assay type: in vivo, NOD.Cγ-Rag1 mice; conditions: for MM cell growth (tumor burden) compared to the control group: p<0.05, melphalan, carfilzomib, bortezomib 3 mg/kg, 3 weeks
Method: NOD.Cγ-Rag1 mice 6-8 weeks old (Jackson laboratory, Bar Harbor, Me.) were injected intravenously with ARP1 MM cells (1×10^6) expressing luciferase. […] Bortezomib (3 mg/kg) was injected intraperitoneal once a day, 2 days a week for 3 weeks. The mice were euthanized when humane endpoint was reached.
Xenogen IVIS-200 an in vivo imaging system (IVIS) was used to analyze tumor burden and was indicated by quantification of luciferase intensity of mice pre- and post-treatments.
GEP data were analyzed by One-Way Anova test using log 2 transformed Affymetrix Signals and presented by boxplot. The comparisons of tumor burden were analyzed either by student t-test (2 groups) or by One-Way Anova test (>2 groups). Kaplan-Meier method was performed for survival with the use of SPSS 16.0 software (SPSS, Chicago, Ill.). Two-tailed p value at an alpha level of 0.05 was considered to indicate statistical significance. Graphs were generated using Prism 6 software.

[3] = tested on: KMS11, ARK and ARP1 cells; experiment: Erastin growth inhibition, PrestoBlue assay; assay type: cell-based, human; conditions: ferrostatin (Fer-1) 1 μM with 10 μM Erastin, 48 hours
Method: FIG. 23. Erastin Inhibits MM Cells Growth. KMS11, ARK and ARP1 cells were treated with 10 μM Erastin with or without ferrostatin (Fer-1) at 1 μM for 48 hours. Cell proliferation was measured by PrestoBlue assay and normalized to control cells to calculated growth inhibition.

γ-H2AX = experiment: Western blot of phosphorylated γ-H2AX in OCI-MY5 cells; assay type: cell-based, human; conditions: OCI-MY5 (FIG. 4C); melphalan alone at high dose, with PAA at lower dose
Method: as §1
(§2) Cells were harvested and lysed with lysis buffer: 150 mM NaCl, 10 mM EDTA, 10 mM Tris, pH 7.4, 1% X-100 Triton. Cell lysates were subjected to SDS-PAGE, transferred onto a pure nitrocellulose membrane (BioRad), and blocked with 5% fat-free milk. […] Membranes were incubated with horseradish peroxidase (HRP)-conjugated anti-mouse secondary antibody (1:10,000, Santa Cruz Biotechnology, cat #: sc-2005) or anti-rabbit secondary antibody (1:10,000, AnaSpec Inc., cat #: AS-28177) for 1 h and chemi-luminescence signals were detected by HRP substrate (EMD Millipore).

AIF1 [4] = experiment: Western blot of AIF1 cleavage in OCI-MY5 cells; assay type: cell-based, human; conditions: OCI-MY5 cells (FIG. 4C); melphalan 0-80 μM 4 hrs
Method: as §1, §2

CD138- non-MM cells = experiment: Pharmacological Ascorbic Acid viability assay (Trypan Blue), CD138- cells from patients; assay type: cell-based, human; conditions: CD138- BM cells from the same MM patients
Method: (§3) Pharmacological Ascorbic Acid (PAA) was kindly provided by Dr. Garry R. Buettner (University of Iowa). CD138^+ MM cells and CD138^− non-MM cells were isolated from MGUS, SMM, and MM patient samples using anti-CD138 immunomagnetic beads (Miltenyl Biotec, Auburn, Calif.). […] After incubation, the cells were washed and cultured up to 24 h. Cell counts and viable cell number were determined using Trypan Blue staining.

[5] = intraperitoneal administration of 4 g ascorbate per kilogram of body weight; cited from earlier work
AIF1 [6] = experiment: AIF1 immunolabeling electron microscopy in OCI-MY5 cells; assay type: cell-based, human; conditions: OCI-MY5, PAA 2 mM (FIG. 4E)
Method: as §1
(§4) Electron microscopy was performed by the Central Microscopy Research Facility personnel at the University of Iowa. Images were captured on JEOL JEM 1230.

RIP1 and RIP3 = experiment: Western blot of RIP1 and RIP3 in OCI-MY5 WT cells; assay type: cell-based, human; conditions: OCI-MY5 WT after PAA (FIG. 3B)
Method: (§5) FIGS. 3A-3B. […] Red boxes represent zooming image of mitochondria in OCI-MY5 WT cells (left) and OCI-MY5 WT cells treated with PA (right).
(§6) Cells were harvested and lysed with lysis buffer: 150 mM NaCl, 10 mM EDTA, 10 mM Tris, pH 7.4, 1% X-100 Triton. Cell lysates were subjected to SDS-PAGE, transferred onto a pure nitrocellulose membrane (BioRad), and blocked with 5% fat-free milk. Primary antibodies for immunoblotting included: anti-AIF1 (1:1000, Cell Signaling), anti-RIP (1:1000, Santa Cruz Biotechnology), anti-RIP3 (1:1000, Cell Signaling), anti-Caspase3 (1:1000, Cell Signaling), anti-Caspase 8 (1:1000, Cell Signaling), anti-Caspase 9 (1:1000, Cell Signaling) Phosphorylated γH2AX (1:1000, Enzo Life Sciences), and β-actin (1:1000, Cell Signaling) as loading control. Membranes were incubated with horseradish peroxidase (HRP)-conjugated anti-mouse secondary antibody (1:10,000, Santa Cruz Biotechnology, cat #: sc-2005) or anti-rabbit secondary antibody (1:10,000, AnaSpec Inc., cat #: AS-28177) for 1 h and chemi-luminescence signals were detected by HRP substrate (EMD Millipore).

caspases 3, 8, and 9 = experiment: Western blot of caspases in OCI-MY5 WT cells; assay type: cell-based, human; conditions: OCI-MY5 WT after PAA (FIG. 3B)
Method: as §5, §6

[7] = cited from earlier work
CD138+ MM cells = experiment: Pharmacological Ascorbic Acid viability assay (Trypan Blue), CD138+ cells from patients; assay type: cell-based, human
Method: as §3, with “CD138^+” for “Pharmacological Ascorbic Acid (PAA) was kindly provided by Dr. Garry R. Buettner (University of Iowa). CD138^+”

OCI-MY5 WT cells = experiment: Transmission electron microscopy of PAA-treated OCI-MY5 WT cells; assay type: cell-based, human; conditions: 4 mM PAA one hour, fixed after 60 and 120 min
Method: as §5, §4

## catalase
OCI-MY5 cells
  effect of pre-treatment on PAA-induced cell death: resistant to PAA

## CC(C)C[C@H](NC(=O)[C@H](Cc1ccccc1)NC(=O)c1cnccn1)B(O)O [bortezomib]
AIF1 [1]
  AIF1 nuclear translocation: does not increase AIF1 nuclear localization
[2]; ARP1, 24 h, p<0.05 (FIGS. 27E, 27F)
  growth inhibition in TRIP13-OE MM cells compared with EV controls: significantly less growth inhibition
[2]
  response of TRIP13-OE ARP1 cells to drug: resistant
ARP1 MM cells; FIG. 1D, PAA 4 mg/kg
  MM cell growth (tumor burden) compared to the control group: inhibited MM cell growth significantly

## CCOC(=O)c1ccc(NC2CCCCC2)c(N)c1 [ferrostatin]
[3]
  effect of ferroptosis inhibitor on erastin growth inhibition: can be reversed

## O=C([O-])CN(CC(=O)[O-])CC(=O)[O-].[Fe+3] [Iron, ferric nitrilotriacatate]
OCI-MY5 cells; OCI-MY5 EV cells, Fe-NTA 100 μM 18 hrs (FIG. 2C)
  cell viability after iron pre-treatment and PAA: rapid decrease in cells viability
OCI-MY5 cells; OCI-MY5 OE-Fpn1 cells, Fe-NTA 100 μM 18 hrs (FIG. 2D)
  cell viability after iron pre-treatment and PAA: same effect

## CC(=O)N[C@@H](CS)C(=O)O [NAC, N-acetyl cysteine]
OCI-MY5 cells
  effect of pre-treatment on PAA-induced cell death: resistant to PAA

## N[C@@H](Cc1ccc(N(CCCl)CCCl)cc1)C(=O)O [melphalan]
γ-H2AX
  phosphorylated γ-H2AX level: induced γ-H2AX
AIF1 [4]
  AIF1 cleavage by western blotting: not able to induce AIF1 cleavage
ARP1 MM cells; FIG. 1D, PAA 4 mg/kg
  MM cell growth (tumor burden) compared to the control group: inhibited MM cell growth significantly
ARP1 MM cells; FIG. 1D, single agents vs combination
  tumor burden compared among treatments: higher decrease in tumor burden
ARP1 MM cells; highest dose of melphalan, single agent
  time at which presence of tumor was detected: only after four weeks
ARP1 MM cells; melphalan 1, 3, 5 mg/kg with or without PAA (FIGS. 1E, 1F)
  tumor burden at three weeks of treatment: inhibit tumor growth better than PAA alone
ARP1 MM cells; single agent melphalan 3 and 5 mg/kg (FIG. 1G)
  MM mouse survival, compared with PAA alone: extended MM mouse survival

## bathocuproinedisulfonic acid disodium salt [BCS]
OCI-MY5 cells
  effect of pre-treatment on PAA-induced cell death: not able to block cellular death

## CC(C)C[C@H](NC(=O)[C@H](CCc1ccccc1)NC(=O)CN1CCOCC1)C(=O)N[C@@H](Cc1ccccc1)C(=O)N[C@@H](CC(C)C)C(=O)[C@@]1(C)CO1 [carfilzomib]
ARP1 MM cells; FIG. 1D, PAA 4 mg/kg
  MM cell growth (tumor burden) compared to the control group: inhibited MM cell growth significantly

## O=C1O[C@H]([C@@H](O)CO)C(O)=C1O [PAA, ascorbic acid]
CD138- non-MM cells
  cell viability of CD138- BM cells following PAA treatment: no significant change
γ-H2AX
  phosphorylated γ-H2AX level: induced γ-H2AX
OCI-MY5 cells; OCI-MY5 AIF1-shRNA (FIG. 4A top)
  viability after PAA treatment, AIF1-shRNA cells versus scrambled sequence: significantly higher
OCI-MY5 cells; OCI-MY5 EV cells
  PAA concentration able to kill cells: 4 mM
OCI-MY5 cells; OCI-MY5 OE-AIF1 (FIG. 4A bottom)
  viability after PAA treatment, OE-AIF1 cells versus empty vector: significantly less viability
OCI-MY5 cells; OCI-MY5 OE-Fpn1 cells
  PAA concentration required to successfully kill cells: 20 mM
AIF1 [1]
  AIF1 nuclear translocation: induces AIF1 nuclear translocation
[5]
  levels of ascorbate: 20000 to 40000 µM
  levels of ascorbyl radicals: 0.5 µM
AIF1 [6]
  cellular localization of AIF1: also in cytoplasm and nuclei
RIP1 and RIP3
  RIP1 and RIP3 cleavage: cleaved
Caspases 3, 8, and 9
  caspases 3, 8, and 9 activity (cleavage): marked increase
[2]
  response of TRIP13-OE ARP1 cells to drug: sensitive
AIF1 [4]
  AIF1 cleavage by western blotting: increase in the AIF1 cleaved form
ARP1 MM cells; FIG. 1D, PAA 4 mg/kg
  MM cell growth (tumor burden) compared to the control group: inhibited MM cell growth significantly
ARP1 MM cells; PAA 4 mg/kg IP once a day, DFO 100 mg/Kg twice a week IP (FIG. 25)
  tumor burden with PAA in mice receiving iron chelator DFO at the same time: not able to decrease tumor burden
ARP1 MM cells; PAA 4 mg/kg, once per day, IP, 15 days vs saline
  tumor progression by IVIS: significantly delayed
[7]; IV, animals and humans
  safety and tolerability: safe and well tolerated
[7]; intravenous (IV) administration
  plasma concentrations from pharmacological doses: ≥ 10 mM
CD138+ MM cells; 2 MGUS patients (FIG. 1C)
  response to PAA of CD138+ cells from MGUS patients: almost no response
CD138+ MM cells; CD138+ cells from MM patients, PAA 1 hr, washed, cultured up to 24 h
  survival of CD138+ cells in vitro following PAA treatment: significantly decreased; also recorded: increased killing
CD138+ MM cells; cells from SMM patients (FIG. 1B)
  effect of PAA on cell viability in SMM patients: same effect
OCI-MY5 WT cells
  type of cell death by TEM: early necrosis (FIG. 3A, 60 mins) followed by late apoptosis
